Experiment [1] addresses T1, human estrogen receptor α (Homo sapiens, UniProt P03372).
T1 construct: purchased Panvera
T1 sequence (P03372 1-595): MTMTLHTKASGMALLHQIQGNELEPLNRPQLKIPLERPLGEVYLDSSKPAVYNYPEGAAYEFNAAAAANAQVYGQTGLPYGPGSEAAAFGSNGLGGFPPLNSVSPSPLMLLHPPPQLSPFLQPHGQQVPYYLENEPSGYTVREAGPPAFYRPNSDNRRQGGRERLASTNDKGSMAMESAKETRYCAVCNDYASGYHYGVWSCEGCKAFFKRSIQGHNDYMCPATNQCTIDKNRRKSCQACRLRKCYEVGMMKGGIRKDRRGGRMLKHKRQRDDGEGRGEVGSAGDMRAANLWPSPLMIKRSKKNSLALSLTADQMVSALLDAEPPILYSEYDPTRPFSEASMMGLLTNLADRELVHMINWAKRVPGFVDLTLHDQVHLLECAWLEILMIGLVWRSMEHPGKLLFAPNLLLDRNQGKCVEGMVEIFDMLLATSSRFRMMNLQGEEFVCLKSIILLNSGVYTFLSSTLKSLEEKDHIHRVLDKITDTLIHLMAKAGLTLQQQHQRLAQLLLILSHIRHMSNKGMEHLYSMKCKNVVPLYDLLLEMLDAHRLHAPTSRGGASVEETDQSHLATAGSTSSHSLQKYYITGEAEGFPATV
The experiment is described as follows: Estrogen Receptor α Flash Plate Assay (binding of radiolabeled estrogen). Particulars: flash plate binding, 0.5 nM radiolabeled estrogen; number in brackets = No. of determinations; NA = no detected activity at test concentration; read-out: Estrogen Receptor α in μM (No.). As to the method: This assay monitors binding of radiolabeled estrogen to the estrogen receptor. It is performed on a BioMek 2000 (Beckman). Plates are read in a scintillation counter (Packard TopCount), with decreased counts an indication of binding of a compound to the receptor.
The plate was sealed and incubated at 4° C. overnight.
On day two, each well was washed three times with 200 μL PBS, pH 7.2, at room temperature. To each well was then added 98 μL radiolabeled estrogen (0.5 nM, which equals 6 nCi for a 120 Ci/mmol batch, Amersham), diluted in ESB and 5 mM dithiothreitol (DTT). To individual wells were then added 2.5 μL test compound diluted in 30% (v/v) dimethyl sulfoxide/50 mM HEPES, pH 7.5. The wells were mixed three times by aspiration, the plate sealed and incubated at room temperature for one hour. The wells were then counted for 1 min in a TopCount scintillation counter (Packard).

Experiment [2] relates to MCF-7 cells. The experiment is described as follows: MCF-7 Cell Proliferation Assay (14C-thymidine, agonist and antagonist mode). The class given is cell-based. Particulars: number in brackets = number of tests, NA = no detected activity at test concentration. Here is the method:
This assay was run according to the procedure described by Welshons, et al., (Breast Cancer Res. Treat., 1987, 10(2), 169-75), with minor modification.
Briefly, MCF-7 cells (from Dr. C. Jordan, Northwestern University) were maintained in RPMI 1640 phenol red free medium (Gibco) in 10% FBS (Hyclone), supplemented with bovine insulin and non-essential amino acid (Sigma). The cells were initially treated with 4-hydoxyltamoxifen (10^−8 M) and let stand at 37° C. for 24 hours. Following this incubation with tamoxifen, the cells were treated with compounds at various concentrations.
Compounds to be tested in the agonist mode were added to the culture media at varying concentrations. Compounds to be treated in the antagonist mode were prepared similarly, and 10 nM 17β-estradiol was also added to the culture media. The cells were incubated for 24 hours at 37° C. Following this incubation, 0.1 μCi of ^14C-thymidine (56 mCi/mmol, Amersham) was added to the culture media and the cells were incubated for an additional 24 hours at 37° C. The cells were then washed twice with Hank's buffered salt solution (HBSS) (Gibco) and counted with a scintillation counter. The increase in the ^14C-thymidine in the compound treated cells relative to the vehicle control cells were reported as percent increase in cell proliferation.

Experiment [3] concerns Ishikawa cells. The experiment is described as follows: Alkaline Phosphatase Assay in Human Endometrial Ishikawa Cells (agonist and antagonist mode). The experiment is classed as cell-based. The conditions noted are these: number in brackets = number of tests, NA = no detected activity at test concentration; for IC50: antagonist mode with 10 nM 17β-estradiol; for EC50: agonist mode. Here is the method:
This assay was run according to the procedure described by Albert et a., Cancer Res, […], 50(11), 330-6-10, with minor modification.
Ishikawa cells (from ATCC) were maintained in DMEM/F12 (1:1) phenol red free medium (Gibco) supplemented with 10% calf serum (Hyclone). 24 hours prior to testing, the medium was changed to DMEM/F12 (1:1) phenol red free containing 2% calf serum.
Compounds to be tested in the agonist mode were added to the culture media at varying concentrations. Compounds to be treated in the antagonist mode were prepared similarly, and 10 nM 17β-estradiol was also added to the culture media. The cells were then incubated at 37° C. for 3 days. On the fourth day, the media was remove, 1 volume of 1× Dilution Buffer (Clontech) was added to the well followed by addition of 1 volume of Assay Buffer (Clontech). The cells were then incubated at room temperature for 5 minutes. […] The cells were incubated at room temperature for 10 minutes and then quantified on a luminometer. The increase of chemiluminescence over vehicle control was used to calculate the increase in alkaline phosphatase activity.

Where [4] appears, read: antagonist mode with 10 nM 17β-estradiol.
Setting [5] is: Homo sapiens, MCF7, agonist mode.
The mark [6] stands for this setting: Homo sapiens, MCF7, antagonist mode with 10 nM 17β-estradiol.

As a reminder, the EC50 is the midpoint of the concentration-response curve. High values mean a less potent agent, low ones a more potent agent.

For the compound `OCCCOc1ccc(C2Oc3cc(O)ccc3C3=C2c2ccc(O)cc2OCC3)cc1` (racemic) [Compound 183], the IC50 in experiment [1] is 0.014 µM; in experiment [2] (setting [4]) it was at least 10000 nM; in experiment [3] it was 3000 nM.
Taken in the same sequence, the figures for `COC(=O)COc1ccc(C2Oc3cc(O)ccc3C3=C2c2ccc(O)cc2OCC3)cc1` (racemic) [Compound 190] were 0.0089 µM, over 10000 nM and over 10000 nM.
With `CC(C)(C)C(=O)Oc1ccc2c(c1)OC(c1ccc(OCCN3CCCCC3)cc1)C1=C2COc2cc(OC(=O)C(C)(C)C)ccc21` (single isomer, unassigned) [Compound 24], the IC50 in experiment [1] came out at 5.95 µM; in experiment [2] (setting [4]), 672 nM; in experiment [3], 66 nM. For the same compound, the EC50 in experiment [2] (agonist mode) and in experiment [3] was over 10000 nM in each case.
Regarding `CC(C)(C)C(=O)Oc1ccc2c(c1)OC(c1ccc(OCCN3CCCCC3)cc1)C1=C2COc2cc(OC(=O)C(C)(C)C)ccc21` (single isomer, unassigned) [Compound 25], the IC50 worked out at 1.2 µM in experiment [1], 1390 nM in experiment [2] (setting [4]) and 235 nM in experiment [3]. The EC50 in experiment [2] (agonist mode) and in experiment [3] was over 10000 nM in each case.
For `CC(C)(C)C(=O)Oc1ccc2c(c1)OC(c1ccc(OCCN3CCCCC3)cc1)C1=C2COc2cc(O)ccc21` (single isomer, unassigned) [Compound 89, 2,2-Dimethyl-propionic acid 8-hydroxy-11S*-(+)-[4-(2-piperidin-1-yl-ethoxy)-phenyl]-5,11-dihydro-chromeno[4,3-c]chromen-2-yl ester], the IC50 in experiment [1] was over 1 µM; in experiment [2] (setting [4]) it was 845 nM; in experiment [3], 10 nM.
As for `CC(C)(C)C(=O)Oc1ccc2c(c1)OCC1=C2C(c2ccc(OCCN3CCCCC3)cc2)Oc2cc(O)ccc21` (single isomer, unassigned) [Compound 90, 2,2-Dimethyl-propionic acid 8-hydroxy-5S*(+)-[4-(2-piperidin-1-yl-ethoxy)-phenyl]-5,11-dihydro-chromeno[4,3-c]chromen-2-yl ester], the IC50 was 0.0066 µM in experiment [1], 1670 nM in experiment [2] (setting [4]) and 57 nM in experiment [3].
For `Oc1ccc2c(c1)OC(c1ccc(OCCN3CCCCC3)cc1)C1=C2CCOc2cc(O)ccc21` (single isomer, unassigned) [Compound 99, 5R*-(+)-[4-(2-Piperidin-1-yl-ethoxy)-phenyl]-11,12-dihydro-5H-6,13-dioxa-benzo[3,4]cyclohepta[1,2-a]naphthalene-2,8-diol], the figures for the IC50 in experiment [1], in experiment [2] (setting [4]) and in experiment [3] were 0.0039 µM, 182 nM and 130 nM, respectively.
Consider `Oc1ccc2c(c1)OC(c1ccc(OCCN3CCCCC3)cc1)C1=C2CCCOc2cc(O)ccc21` (single isomer, unassigned) [Compound 125], for which the values for the IC50 in experiment [2] (setting [4]) and in experiment [3] were 4700 nM and 1620 nM, respectively.
Taken in the same sequence, the figures for `Oc1ccc2c(c1)OC(c1ccc(OCCN3CCCCC3)cc1)C1=C2CCCOc2cc(O)ccc21` (single isomer, unassigned) [Compound 126] were 245 nM and 78 nM.
Taken in the same sequence, the figures for `CN(C)CCOc1ccc(C2Oc3ccccc3C3=C2c2ccc(O)cc2OCC3)cc1` (single isomer, unassigned) [Compound 150] were 2940 nM and 850 nM.
Taken in the same sequence, the figures for `CN(C)CCOc1ccc(C2Oc3ccccc3C3=C2c2ccc(O)cc2OCC3)cc1` (single isomer, unassigned) [Compound 151] were 2760 nM and 605 nM.
As for `CN(C)CCOc1ccc(C2Oc3cc(O)ccc3C3=C2c2ccc(O)cc2OCC3)cc1` (single isomer, unassigned) [Compound 163], the figures for the IC50 in experiment [2] (setting [4]) and in experiment [3] were 687 nM and 405 nM, respectively.
On to `CN(C)CCOc1ccc(C2Oc3cc(O)ccc3C3=C2c2ccc(O)cc2OCC3)cc1` (single isomer, unassigned) [Compound 164], for which the IC50 stood at 293 nM in experiment [2] (setting [4]) and 61 nM in experiment [3].
In experiment [3], `Oc1ccc2c(c1)OC(c1ccc(OCCN3CCCCCC3)cc1)C1=C2CCOc2cc(O)ccc21` (single isomer, unassigned) [Compound 165] had an IC50 of 128 nM.
On the same count and under the same terms, the value for `Oc1ccc2c(c1)OC(c1ccc(OCCN3CCCCCC3)cc1)C1=C2CCOc2cc(O)ccc21` (single isomer, unassigned) [Compound 166] was 41 nM.
Regarding `COc1ccc2c(c1)O[C@@H](c1ccc(OCCN3CCCCC3)cc1)C1=C2COc2cc(O)ccc21` (single isomer, unassigned) [Compound 176, 8-Methoxy-5S-[4-(2-piperidin-1-yl-ethoxy)-phenyl]-5,11-dihydro-chromeno[4,3-c]chromen-2-ol], in experiment [1], the IC50 was 0.024 µM.
`CC(C)(C)C(=O)Oc1ccc2c(c1)OC(c1ccc(OCCN3CCCCC3)cc1)C1=C2CCOc2cc(OC(=O)C(C)(C)C)ccc21` (single isomer, unassigned) [Compound 179]: the IC50 in experiment [2] (setting [4]) was 1870 nM; in experiment [3], 9 nM.
Taken in the same sequence, the figures for `CC(C)(C)C(=O)Oc1ccc2c(c1)OC(c1ccc(OCCN3CCCCC3)cc1)C1=C2CCOc2cc(OC(=O)C(C)(C)C)ccc21` (single isomer, unassigned) [Compound 180] were 655 nM and 0.9 nM.
For the compound `COC1Oc2cc(OC(=O)C(C)(C)C)ccc2C2=C1c1ccc(OC(=O)C(C)(C)C)cc1OC2c1ccc(OCCN2CCCCC2)cc1` (centres unmarked) [Compound 27], the IC50 in experiment [1] was 0.69 µM.
Take `CC(C)(C)C(=O)Oc1ccc2c(c1)OC(C)(c1ccc(OCCN3CCCC3)cc1)C1=C2COc2cc(OC(=O)C(C)(C)C)ccc21` (centres unmarked) [Compound 30, 2,2-Dimethyl-propionic acid, 8-(2,2-dimethyl-propionyloxy)-5-methyl-5-[4-(2-pyrrolidin-1-yl-ethoxy)-phenyl]-5,11-dihydro-chromeno[4,3-c]chromen-2-yl ester]: the EC50 in experiment [2] (setting [5]) and in experiment [3] (Homo sapiens) was over 10000 nM throughout. The IC50 in experiment [2] (setting [6]) is 2200 nM; in experiment [3] (Homo sapiens), 630 nM.
As to `CC(C)(C)C(=O)Oc1ccc2c(c1)OC(C)(c1ccc(OCCN3CCCCCC3)cc1)C1=C2COc2cc(OC(=O)C(C)(C)C)ccc21` (centres unmarked) [Compound 33, 11-[4-(2-azepan-1-yl-ethoxy)-phenyl]-8-(2,2-dimethyl-propionyloxy)-11-methyl-5,11-dihydro-chromeno[4,3-c]chromen-2-yl ester], the concentration for a half-maximal effect (EC50) in experiment [2] (setting [5]) and in experiment [3] (Homo sapiens) was over 10000 nM each time. Besides, the IC50 was 4800 nM in experiment [2] (setting [6]) and 1000 nM in experiment [3] (Homo sapiens).

The values are drawn from US7105679B2, “Heteroatom containing tetracyclic derivatives as selective estrogen receptor modulators” (priority 2001, dated 2006).
